Drawing on BindingDB's records for doi:10.1002/1098-2396(20001215)38:4 (University of North Texas, 2000), this text covers Ki for three compounds.

This experiment addresses D(2) dopamine receptor (Rattus norvegicus, UniProt P61169).

Structures are written as SMILES. pKi: −log10 of the molar value.

Chain of D(2) dopamine receptor (P61169 whole entry): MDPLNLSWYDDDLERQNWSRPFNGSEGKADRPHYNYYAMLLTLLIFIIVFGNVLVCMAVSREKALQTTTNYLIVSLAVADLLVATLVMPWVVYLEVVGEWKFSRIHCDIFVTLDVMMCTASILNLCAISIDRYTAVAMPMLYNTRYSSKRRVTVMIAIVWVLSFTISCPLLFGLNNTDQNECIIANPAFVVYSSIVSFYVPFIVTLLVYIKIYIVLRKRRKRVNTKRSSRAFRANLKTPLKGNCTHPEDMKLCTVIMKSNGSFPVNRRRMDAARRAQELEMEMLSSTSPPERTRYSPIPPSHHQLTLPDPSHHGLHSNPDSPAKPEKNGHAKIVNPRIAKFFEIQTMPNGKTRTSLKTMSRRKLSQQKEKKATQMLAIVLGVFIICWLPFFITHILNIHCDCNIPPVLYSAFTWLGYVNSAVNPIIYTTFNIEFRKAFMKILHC

`O=C(c1ccc(F)cc1)C1CCN(CCn2c(=O)[nH]c3ccccc3c2=O)CC1` [3-(2-{4-[(4-fluorophenyl)carbonyl]piperidin-1-yl}ethyl)-1,2,3,4-tetrahydroquinazoline-2,4-dione]: the pKi (as a rule, the Ki on a negative log10 scale, so that one unit is a factor of ten) is 5.57.

As to `CC(C)NCC(O)COc1cccc2[nH]ccc12` (stereo not drawn) [LB-46], the pKi is less than 5.00.

Compound `Cc1ccc(N(CC2=NCCN2)c2cccc(O)c2)cc1` [SMR000059054] gave a pKi of 5.75.
